# From ChEMBL document CHEMBL1201862, “PubChem BioAssay data set” (2004)
# The source made the active and inactive calls. Cut-off read from the data, not from the text of the source, for most assays here: actives have a measured EC50 and inactives only a lower limit.
# Columns and labels:
# [1] = Luminescence Cell-Based Dose Response HTS to Identify Inhibitors of 5'UTR Stem-Loop Driven Prion Protein mRNA Translation in H4 Neuroglioblastoma Cells. [Related pubchem assays: 1827 (Project Summary), 1813 (Primary HTS)]; assay type: functional
# [2] = alpha-synuclein stem-loop luciferase translation blockers – H4 neuroglioma cells, luminescence, confirmation (AID 1988); assay type: functional, cell-based
# [3] = luciferase reporter signal suppression in cells – H4 neuroglioma cells, luminescence, dose response (AID 1990); assay type: functional, cell-based
# [4] = Luminescence Cell-Based Dose Confirmation HTS to Identify Activators of 5'UTR Stem-Loop Driven Alpha-Synuclein mRNA Translation in H4 Neuroglioblastoma Cells. [Related pubchem assays: 1829 (Project Summary), 1814 (Primary HTS)]; assay type: functional
# [5] = Luminescence Cell-Based Dose Response HTS to Identify Activators of Luciferase Translation or Activity in H4 […] Cells. [Related pubchem assays: 1829 (Project Summary), 1814 (Primary HTS)]; assay type: functional
# H4 = assay: Luminescence Cell-Based Dose Response HTS to Identify Activators of 5'UTR Stem-Loop Driven Prion Protein mRNA Translation in H4 Neuroglioblastoma Cells. [Related pubchem assays: 1829 (Project Summary), 1814 (Primary HTS)]; assay type: functional; conditions: Homo sapiens
# [6] = target: T1, Polyadenylate-binding protein 1 (Homo sapiens, UniProt P11940); assay: MLLE domain peptide-binding blockers, IC50 – biochemical, fluorescence polarization, FITC-PAM2 peptide, dose response (AID 602259); assay type: functional; conditions: read-out: IC50_Mean
# [7] = target: T1, Polyadenylate-binding protein 1; assay: MLLE binding blockers, Cy5 peptide tracer – biochemical, fluorescence polarization, Cy5-PAM2 peptide, secondary, miRNA deadenylation inhibitor project, dose response (AID 602260); assay type: functional; conditions: read-out: IC50_Mean
# [8] = tested on: Streptococcus sp. 'group A'; assay: Streptococcus pyogenes SK(-)GAS viability under kanamycin – luminescence, BacTiterGlo, confirmation, counter-screen for streptokinase expression inhibitor project, dose response (AID 1900); assay type: functional, organism-based
# Streptococcus = assay: GAS UMAA2166 growth inhibition – luminescence, BacTiterGlo, counter-screen for streptokinase expression inhibitor project, dose response (AID 1915); assay type: functional, organism-based;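 note: potency for reduction of bacterial viability or growth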
# Streptokinase A = target: T2, Streptokinase A (Streptococcus pyogenes serotype M1, UniProt P10520); assay: viability-normalized secreted streptokinase activity reduction – plasminogen activation absorbance, OD405, dose response (AID 1914); assay type: functional, Streptococcus pyogenes M1 GAS;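 note: secreted streptokinase activity via plasminogen activation per viability signal from cell pellet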
# T2 sequence (P10520 whole entry): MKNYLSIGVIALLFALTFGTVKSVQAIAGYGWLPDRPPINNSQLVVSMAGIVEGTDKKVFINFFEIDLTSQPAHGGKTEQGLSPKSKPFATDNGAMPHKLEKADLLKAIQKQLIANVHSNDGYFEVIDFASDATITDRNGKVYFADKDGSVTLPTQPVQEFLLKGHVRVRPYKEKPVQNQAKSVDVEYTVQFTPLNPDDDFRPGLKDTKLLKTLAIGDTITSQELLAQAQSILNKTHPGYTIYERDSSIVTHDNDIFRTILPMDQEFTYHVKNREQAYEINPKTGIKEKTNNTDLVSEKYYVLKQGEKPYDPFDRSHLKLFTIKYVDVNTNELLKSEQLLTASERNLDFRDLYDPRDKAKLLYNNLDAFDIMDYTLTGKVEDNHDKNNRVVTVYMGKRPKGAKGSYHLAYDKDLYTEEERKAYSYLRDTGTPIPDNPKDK
# [9] = target: T3, Heat shock factor protein 1 (Mus musculus, UniProt P38532); assay: decrease of HSF1-responsive luciferase luminescence – cell-based, NIH3T3, dose retest, confirmation (AID 2382); assay type: functional;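 note: NIH3T3 fibroblasts with HSF1-driven luciferase reporter stressed by proteasome inhibitor MG132; luminescence from HSF1-driven luciferase expression after 8 hours of MG132 stress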
# T3 sequence (P38532 whole entry): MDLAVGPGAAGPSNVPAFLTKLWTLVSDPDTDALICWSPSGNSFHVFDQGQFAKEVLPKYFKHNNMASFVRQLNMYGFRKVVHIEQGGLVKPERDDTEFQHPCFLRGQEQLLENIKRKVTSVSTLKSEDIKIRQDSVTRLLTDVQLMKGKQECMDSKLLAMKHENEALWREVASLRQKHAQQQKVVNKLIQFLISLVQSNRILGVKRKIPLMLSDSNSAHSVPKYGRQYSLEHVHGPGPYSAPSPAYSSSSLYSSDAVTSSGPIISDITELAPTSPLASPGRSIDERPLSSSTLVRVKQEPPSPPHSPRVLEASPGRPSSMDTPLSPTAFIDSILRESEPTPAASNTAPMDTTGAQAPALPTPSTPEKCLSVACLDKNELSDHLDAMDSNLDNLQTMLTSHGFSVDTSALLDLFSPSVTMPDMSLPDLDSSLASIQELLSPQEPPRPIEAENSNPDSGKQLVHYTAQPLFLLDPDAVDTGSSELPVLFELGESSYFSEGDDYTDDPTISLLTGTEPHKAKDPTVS
# [10] = target: Luciferin 4-monooxygenase (Photinus pyralis, UniProt P08659); assay: inhibition of purified Photinus pyralis luciferase – biochemical, luminescence, dose response (AID 1891)
# [11] = Luminescence Cell-Based Dose Confirmation HTS to Identify Inhibitors of Platelet Dense Granule Release. [Related pubchem assays: 1663 (Primary HTS), 1678 (Summary of Project)]; assay type: functional
# Cytochrome P450 2C9 = Cytochrome P450 2C9 (Homo sapiens, UniProt P11712)
# Paired box protein Pax-8 = Paired box protein Pax-8 (Homo sapiens, UniProt Q06710); assay: PAX8 transcriptional activity inhibition in RMG-I – RMG-I cells, luciferase, cherry-pick, dose response (AID 687027); assay type: functional, cell-based;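 note: luciferase reporter driven by Pax8 target thyroperoxidase promoter measured by SteadyGlo luminescence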
# [12] = Luminescence Cell-Based Dose Retest to Confirm Inhibitors of Cancer Stem Cells. [Related pubchem assays (depositor defined):AID2717, AID2721]; assay type: functional; conditions: Homo sapiens
# T1 sequence (P11940 whole entry, the tested form may be a part): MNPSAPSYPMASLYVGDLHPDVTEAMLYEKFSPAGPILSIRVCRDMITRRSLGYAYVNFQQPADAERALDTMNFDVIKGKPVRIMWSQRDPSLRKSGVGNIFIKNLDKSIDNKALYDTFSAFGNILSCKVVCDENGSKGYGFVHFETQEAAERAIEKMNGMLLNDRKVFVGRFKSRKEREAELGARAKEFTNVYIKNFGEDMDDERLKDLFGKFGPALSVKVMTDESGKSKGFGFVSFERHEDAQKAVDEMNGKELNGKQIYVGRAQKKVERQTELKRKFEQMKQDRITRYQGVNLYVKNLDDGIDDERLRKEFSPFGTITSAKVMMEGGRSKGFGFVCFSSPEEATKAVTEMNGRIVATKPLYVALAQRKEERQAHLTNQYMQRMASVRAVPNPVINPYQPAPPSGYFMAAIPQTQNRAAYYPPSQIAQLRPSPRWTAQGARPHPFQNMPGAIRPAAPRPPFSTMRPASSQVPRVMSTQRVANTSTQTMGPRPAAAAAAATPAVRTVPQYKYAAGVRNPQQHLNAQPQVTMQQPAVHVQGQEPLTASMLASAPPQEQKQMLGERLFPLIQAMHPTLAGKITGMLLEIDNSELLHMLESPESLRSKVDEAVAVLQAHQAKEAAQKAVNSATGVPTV
# Chain of Paired box protein Pax-8 (Q06710 whole entry): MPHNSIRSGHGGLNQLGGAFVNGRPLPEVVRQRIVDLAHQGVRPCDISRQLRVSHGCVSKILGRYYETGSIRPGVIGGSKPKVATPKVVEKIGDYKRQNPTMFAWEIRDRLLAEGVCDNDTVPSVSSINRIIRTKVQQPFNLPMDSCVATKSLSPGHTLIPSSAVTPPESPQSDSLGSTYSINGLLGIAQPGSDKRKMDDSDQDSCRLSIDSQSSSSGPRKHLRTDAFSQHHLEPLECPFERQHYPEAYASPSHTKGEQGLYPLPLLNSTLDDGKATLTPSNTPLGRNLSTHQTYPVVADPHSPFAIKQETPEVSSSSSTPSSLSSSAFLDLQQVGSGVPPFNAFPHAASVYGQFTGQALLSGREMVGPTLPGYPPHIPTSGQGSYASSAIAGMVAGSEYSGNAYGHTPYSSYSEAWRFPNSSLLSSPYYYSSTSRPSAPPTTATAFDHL
# Chain of Luciferin 4-monooxygenase (P08659 whole entry): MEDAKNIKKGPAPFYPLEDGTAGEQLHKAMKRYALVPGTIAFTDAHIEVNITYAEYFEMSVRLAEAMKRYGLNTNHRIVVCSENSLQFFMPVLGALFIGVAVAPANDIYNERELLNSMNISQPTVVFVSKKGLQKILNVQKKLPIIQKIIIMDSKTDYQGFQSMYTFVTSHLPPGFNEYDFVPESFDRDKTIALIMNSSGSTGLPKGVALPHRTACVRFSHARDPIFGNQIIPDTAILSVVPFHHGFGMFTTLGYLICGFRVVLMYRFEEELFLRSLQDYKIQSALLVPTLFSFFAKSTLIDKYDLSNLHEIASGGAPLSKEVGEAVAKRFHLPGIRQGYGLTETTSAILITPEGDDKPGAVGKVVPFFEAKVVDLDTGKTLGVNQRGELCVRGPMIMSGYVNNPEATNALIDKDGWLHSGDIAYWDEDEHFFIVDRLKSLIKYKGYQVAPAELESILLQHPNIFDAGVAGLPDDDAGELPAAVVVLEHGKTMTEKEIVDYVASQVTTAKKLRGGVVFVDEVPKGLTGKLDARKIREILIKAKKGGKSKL
# Chain of Cytochrome P450 2C9 (P11712 whole entry): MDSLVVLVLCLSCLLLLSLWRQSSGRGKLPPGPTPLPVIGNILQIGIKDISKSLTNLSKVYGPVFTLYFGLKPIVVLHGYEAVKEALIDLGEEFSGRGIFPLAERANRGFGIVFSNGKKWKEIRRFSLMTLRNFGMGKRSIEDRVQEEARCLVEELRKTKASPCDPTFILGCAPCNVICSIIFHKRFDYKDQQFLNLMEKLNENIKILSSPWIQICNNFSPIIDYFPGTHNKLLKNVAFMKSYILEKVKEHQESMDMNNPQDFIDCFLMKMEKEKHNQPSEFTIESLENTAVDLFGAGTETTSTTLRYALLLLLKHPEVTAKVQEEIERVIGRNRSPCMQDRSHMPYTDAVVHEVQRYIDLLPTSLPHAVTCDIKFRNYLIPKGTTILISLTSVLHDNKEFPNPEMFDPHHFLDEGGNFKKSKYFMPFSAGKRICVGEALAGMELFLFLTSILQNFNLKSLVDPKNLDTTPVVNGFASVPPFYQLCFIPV
smiles,measurement,setting,value
Cc1cc(/C=C2/SC(=S)N(c3cccc(C(F)(F)F)c3)C2=O)c(C)n1-c1cccnc1,EC50,[1],> 120 µM (not active)
same,EC50,[2],> 120 µM (not active)
same,EC50,[3],> 120 µM (not active)
CCc1ccc(C(=O)Nn2cnc3ccccc3c2=O)cc1,EC50,[4],2.82 µM (active)
same,EC50,[5],26.8 µM (active)
same,EC50,H4,0.887 µM (active)
CC1CC(C)(C)NC(=S)S1 (centres undefined),IC50,[6],> 66 µM (inactive)
same,IC50,[7],> 66 µM (inactive)
Fc1ccc(-c2csc3ncnc(N4CCc5ccccc5C4)c23)cc1,EC50,[1],> 120 µM (not active)
same,EC50,[8],9.67 µM (active)
same,EC50,[2],> 120 µM (not active)
same,EC50,Streptococcus,> 50 µM (not active)
same,EC50,[3],23.6 µM (active)
same,EC50,Streptokinase A,6.92 µM (active)
OCCNc1nc2nonc2nc1NCCO,EC50,[9],> 195 µM (not active)
CCOC(=O)C1(Cc2ccc(OC)cc2)CCN(C(=O)c2csc(C)n2)CC1,EC50,[9],> 195 µM (not active)
O=C(/C=C/c1ccccc1)NC(=S)Nc1ccccc1O,EC50,[4],0.387 µM (active)
same,EC50,[5],66.3 µM (active)
same,EC50,H4,1.9 µM (active)
O=C(CSc1ccc2nnc(-c3ccccc3)n2n1)N1CCCCC1,IC50,[6],> 66 µM (inactive)
same,IC50,[7],> 66 µM (inactive)
O=C(NCCc1ccccc1)c1ccccc1NC(=O)C1CCCCC1C(=O)O (centres undefined),EC50,[4],19.1 µM (active)
same,EC50,[5],17.9 µM (active)
same,EC50,H4,5.14 µM (active)
Cc1cc(C#N)c2ccccc2n1,EC50,[10],> 112 µM (not active)
same,EC50,[11],> 112 µM (not active)
CC(=O)Nc1ccc(Nc2nc(-c3cc4ccccc4oc3=O)cs2)cc1,EC50,[4],0.397 µM (active)
same,EC50,[5],0.676 µM (active)
same,EC50,H4,1.7 µM (active)
Cc1ccc(S(=O)(=O)N2CCCC(C(=O)NCCc3ccc4c(c3)OCO4)C2)cc1 (centres undefined),EC50,[9],> 195 µM (not active)
O=C(Cc1ccc2c(c1)CCCC2)Nc1ccccc1Br,IC50,[6],> 66 µM (inactive)
same,AC50,Cytochrome P450 2C9,15.8 µM (inconclusive)
same,IC50,[7],> 66 µM (inactive)
COc1ccc(C(=S)N2CCN(c3ccccc3C)CC2)cc1,IC50,[6],> 66 µM (inactive)
same,IC50,[7],> 66 µM (inactive)
Cc1ccc(-n2c(C)cc3c2CCCC3=O)cc1,IC50,[6],41.2 µM (inactive)
same,IC50,[7],> 66 µM (inactive)
COc1ccccc1N1CCN(C(=O)CSc2ncnc3c2cnn3-c2ccc(C)c(C)c2)CC1,EC50,[4],39.4 µM (active)
same,EC50,[5],15.4 µM (active)
same,EC50,H4,54.1 µM (active)
CCOC(=O)c1sc2nc(NC(=O)C3CC3)sc2c1C,EC50,[4],10.8 µM (active)
same,EC50,[5],57.6 µM (active)
same,EC50,H4,28.4 µM (inconclusive)
COc1cc(NC(=O)CSc2nnnn2-c2ccccc2)cc(OC)c1OC,EC50,[9],> 195 µM (not active)
Cc1nnc2nc(SCC(=O)NC3CCCCC3)n(-c3ccc(Br)cc3)c(N)c1-2,EC50,[1],13.9 µM (active)
same,EC50,[2],9.53 µM (active)
same,AC50,Paired box protein Pax-8,8.51 µM (active)
same,AC50,[12],9.82 µM (active)
same,EC50,[3],14.6 µM (active)
CC1CC(c2ccccc2)=Nc2ccccc2N1 (centres undefined),EC50,[4],8.32 µM (active)
same,EC50,[5],10.6 µM (active)
same,EC50,H4,43 µM (active)
O=C(c1ccccc1)N(CCO)Cc1cc2cc3c(cc2nc1O)OCCO3,IC50,[6],> 66 µM (inactive)
same,IC50,[7],> 66 µM (inactive)
